In US20240287065A1, “COMPOUND AS CDK KINASE INHIBITOR AND USE THEREOF” (TYK MEDICINES (ZHENGZHOU) , INC., priority 2021, published 2024):
Read-outs that look alike come from different tables or passages of the source.

Columns and labels:
CDK6/CycD1 = CDK6/CycD1 (Homo sapiens, UniProt Q00534); assay: Enzyme activity test; format: biochemical;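 also: values come from the source column headed CDK6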
Description: (§1) • 1. The test compounds and pabocinib were configured into a […] solution of DMSO; • 2. 20 nL of stock solution was transferred to a 384-well plate using Echo550. DMSO was used as a blank control.
(§2) • 1. according to the following table to prepare 1.3X enzyme solution containing enzyme, substrate and cofactor; • 2. 15 μL of 1.3X enzyme solution was added to each well and the mixture was incubated for 30 min at room temperature; • 3. 5 μL of ATP solution was added to initiate the reaction. The final volume of each well was 20 μL; • 4. After incubation for 150 min at room temperature, 75 μL of termination buffer solution was added to terminate the experiment; • 5. The samples were analyzed using EZ reader.
(§3) The % inhibition was calculated using the following equation
(§4) The one treated with DMSO is the positive control (PC)
(§5) The one without enzyme is the negative control (NC)
(§6) % Inhibition=100-100*((CRPC−CRsample)/(CRPC−CRNC))

CDK2/CycE1 = CDK2/CycE1 (Homo sapiens, UniProt P24941); assay: Enzyme activity test; format: biochemical;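 also: values come from the source column headed CDK2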
Description: as §1, §2, §3, §4, §5, §6

CDK4/CycD3 = CDK4/CycD3 (Homo sapiens, UniProt P11802); assay: Enzyme activity test; format: biochemical;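 also: values come from the source column headed CDK4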
Chain of CDK4/CycD3 (P11802 whole entry, species assumed): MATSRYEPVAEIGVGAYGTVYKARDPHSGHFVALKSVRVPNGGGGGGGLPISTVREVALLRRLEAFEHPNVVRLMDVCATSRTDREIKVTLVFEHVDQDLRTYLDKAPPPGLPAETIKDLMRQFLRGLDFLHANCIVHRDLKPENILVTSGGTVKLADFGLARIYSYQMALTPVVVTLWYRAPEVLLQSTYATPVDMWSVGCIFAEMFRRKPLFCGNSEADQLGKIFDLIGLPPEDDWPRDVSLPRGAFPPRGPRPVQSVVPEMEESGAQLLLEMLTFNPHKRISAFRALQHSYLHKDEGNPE
Chain of CDK4/CycD3 (P30281 whole entry partner, species assumed): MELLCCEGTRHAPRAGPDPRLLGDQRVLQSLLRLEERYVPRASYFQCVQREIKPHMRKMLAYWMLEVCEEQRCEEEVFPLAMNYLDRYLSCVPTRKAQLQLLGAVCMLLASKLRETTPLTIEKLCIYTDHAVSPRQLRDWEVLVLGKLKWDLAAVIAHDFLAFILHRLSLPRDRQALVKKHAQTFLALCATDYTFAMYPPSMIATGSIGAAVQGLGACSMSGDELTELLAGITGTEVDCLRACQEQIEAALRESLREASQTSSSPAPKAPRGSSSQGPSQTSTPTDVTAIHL
Description: as §1, §2, §3, §4, §5, §6

xMCF-7/Palbo-R cells = assay: xMCF-7/Palbo-R xenograft tumor model; format: in vivo; settings: 20 mg/kg, oral tube feeding twice daily for 20 days, Balb/c nude female mice
Description: To establish a xenograft tumor model, 1×10^7 xMCF-7/Palbo-R cells were suspended in 0.2 mL of a mixture of Matrigel and […] (1:1) and injected subcutaneously into 6-8 week-old Balb/c nube female mice. Tumor growth was observed periodically, and the volume (volume=½×(length×width 2)) was measured with a vernier caliper. When the tumors grew to an average volume of 100˜150 mm3, the drug was administered to mice (12 days after inoculation) in random groups according to the tumor size and their body weights. […] The drugs were administered by oral tube feeding twice daily for 20 days. Tumor volume and animal weight were measured twice a week and continued until the end of the experiment. Dosing day was defined as day 0. Measurement time points were day 0, day 3, day 7, day 10, day 14, day 17 and day 20. All mice were euthanized by cervical dislocation. At the end of the experiment, tumors were collected and weighed to calculate TGI values (see Table 4).

T47D cells = assay: Cell proliferation inhibition assay (MTT, 7 days); format: cell-based; settings: 7 days incubation
Description: (§7) MCF7, T47D, OVCAR3 and HCC1806 cells were inoculated in 96-well plates at 3000, 3000, 2500, and 2000 cells/well, respectively, and cultured overnight at 37° C., 5% C02 incubator.
(§8) 1. […] Then 2.5 μl of the stock solution was dissolved in 497.5 μl of DMSO-free medium, and then a 3-fold serial gradient dilution was performed with 0.1% DMSO medium for a total of 9 concentrations, and the concentrations of the compounds after dilution were as follows: • 10000 nM, 3333.33 nM, 1111.11 nM, 370.34 nM, 123.45 nM, 41.15 nM, 13.72 nM, 4.57 nM, and 1.52 nM. • b) After fully mixing, 20 μL of compound solutions were added into cell culture plates containing 80 μL of cells respectively, with 4 replicate wells for each concentration. • c) The cells were transferred to an incubator and incubated for 7 days, and exchanged with fresh culture medium containing the same concentration of compounds when incubated to day 4. 2. MTT assay • a) The cell culture plate was taken out and 10 μL of 5 mg/ml MTT was added to the hood. • b) The cell culture plate was put back into the incubator and continued to incubate for 3 hours. • c) The cell culture plate was taken out to remove the culture medium, and 100 μL of isopropanol (0.4 mMHCl, 0.4% NP40) was added to the plate, and the plate was shaken on a shaker at room temperature for 30 minutes and read at 570 nm. 3. Data analysis
(§9) The survival rate (% Cell Survival) was calculated using the following equation:
(§10) % Cell Survival=100%×(OD_Sample−OD_LCave)/(OD_HC−OD_LCave) • OD_HC: 0.1‰ cell readings of DMSO control • OD_Sample: cell readings of compound addition • OD_LC: readings of blank medium • Analyed by Prizm: Dose-response-Inhibition Log(inhibitor) vs response (three parameters for the best fit)
(§11) IC50 (nM) values were calculated by concentration-response curve fitting.

OVCAR3 cells = assay: Cell proliferation inhibition assay (MTT, 7 days); format: cell-based; settings: 7 days incubation
Description: as §7, §8, §9, §10, §11

HCC1806 cells = assay: Cell proliferation inhibition assay (MTT, 7 days); format: cell-based; settings: HCC1086 [sic], 7 days incubation
Description: as §7, §8, §9, §10, §11

MCF7 cells = assay: Cell proliferation inhibition assay (MTT, 7 days); format: cell-based; settings: 7 days incubation
Description: as §7, §8, §9, §10, §11

OVCAR-3 cells = assay: OVCAR-3 xenograft tumor model; format: in vivo; settings: BALB/c nude female mice
Description: OVCAR-3 cells were cultured in RPMI1640 culture medium containing 20% fetal bovine serum and 10 μg/mL Insalin. Cells in the exponential growth phase were collected, and the cells were resuspended in the mixed solution of PBS and Matrigel in a ratio of 1:1 to a suitable concentration for subcutaneous tumor inoculation in nude mice.
To establish a xenograft tumor model, 1×10^7 OVCAR-3 cells were suspended in 0.2 mL of a mixture of PBS and Matrigel (1:1) and injected subcutaneously into 6-8-week-old BALB/c nube female mice on the right back. Tumor growth was observed periodically, and the volume (volume=½[…](length×width 2)) was measured with a vernier caliper. When the tumors grew to an average volume of 100˜150 mm^3, the drug was administered to mice (27 days after inoculation) in random groups according to the tumor size and their body weights. […] Tumor volume and animal weight were measured twice a week and continued until the end of the experiment. Dosing day was defined as day 0. Measurement time points were day 0, day 3, day 7, day 10, day 14, day 17 and day 21. All mice were euthanized by cervical dislocation. At the end of the experiment, tumors were collected and weighed to calculate TGI values (see Table 5).

MCF-7-Palbo-R cells = assay: MCF-7-Palbo-R cell antiproliferative assay (BrdU ELISA); format: cell-based; settings: for IC50: 72 hours, BrdU; for Bottom(%): bottom of inhibition curve; for Top(%): top of inhibition curve
Description: 1. Experimental Materials • MCF-7/palbo-R • EMEM medium (ATCC, 30-2003); DMEM/F12 medium (Gibco-1 1330-032) • Fetal bovine serum (cellmax-SA21 1.02) • DMSO (SIGMA, D2650) • BrdU ELISA cell proliferation assay kit (Roche, 11647229001) • ELISA (e.g. MD-SpectraMax ID5 or EnVision)
2. Experimental protocol • 1. Cell spreading • 1) Cells were counted, the concentration of cell suspension was adjusted • 2) The MCF7/Palbo-R cell suspension was seeded in 96-well plates at […] volume to make the number of cells per well is 4000-5000; • 3) Blank control group was added with 90 μl of culture medium; • 2. […] A 3-fold serial gradient dilution was performed with 0.1% DMSO medium for a total of 9 concentrations, and the concentrations of the compounds after dilution were as follows: • 10000 nM, 3333.33 nM, 1111.11 nM, 370.34 nM, 123.45 nM, 41.15 nM, 13.72 nM, 4.57 nM, and 1.52 nM. • b) After 72 hours of compound treatment. • 1) A 10 mM of Brdu stock solution was diluted with RPMI medium and added to a 96-well plate at 20 uL/well and shaken at 350 rpm for 10 minutes. • 2) The 96 well plate was placed back into the incubator for 1 or 2 hours. • 3) After the medium was removed from the 96-well plate, 200 ul/well of Fixation/Denaturation solution was added and incubated for 30 minutes at room temperature. • 4) The fixation solution was removed and 100 ul of peroxidase-coupled anti-Brdu antibody solution (antibody dilution prepared at 1:100 dilution) was added, • and incubated at 350 rpm for 1 hour at room temperature. • 6) The 96-well plate was washed three times with 300 ul/well of PBS. • 8) 100ul of peroxidase substrate solution was added and shaken at 350 rpm for about 10-20 minutes at room temperature, • until the DMSO-treated cell control wells turn a medium blue color. If a color is too dark, it will cause the absorbance value to out of the reading range. • 9) The reaction was terminated by the addition of 25 ul of 1 M sulfuric acid. Shake to ensure uniform color. • 10) The absorbance at 450 nm was recorded. • 3. Data analysis • The inhibition rate is calculated using the following equation:
IR (%)=(1−(RLU compound−RLU blank)/(RLU control−RLU blank))*100%.

MV4-11 cells = assay: MV4-11 xenograft tumor model; format: in vivo; settings: 20 mg/kg, oral tube feeding once a day for 15 days, NOD/SCID mice
Description: MV-4-11 cells were cultured in IMEM culture medium containing 10% fetal bovine serum. Cells in the exponential growth phase were collected, and the cells were resuspended in PBS to a suitable concentration for subcutaneous tumor inoculation in nude mice.
To establish a xenograft tumor model, 5×10^6 MV4-11 cells were suspended in 0.1 mL of a 1:1 mixture of PBS and Matrigel and injected subcutaneously into the right dorsal side of 6-8-week-old NOD/SCID mice. Tumor growth was observed periodically, and the volume (volume=½×(length×width^2)) was measured with a vernier caliper. When the tumors grew to an average volume of 100˜150 mm^3, the drug was administered to mice (12 days after inoculation) in random groups according to the tumor size and their body weights. […] Among them, the mice in the Vehicle, 10 mg/kg TY-3301, 10 mg/kg C3, and 20 mg/kg C3 groups were administered twice a day by oral tube feeding for 15 days, and the mice in the 20 mg/kg TY-3300 group were administered once a day by oral tube feeding for 15 days. Tumor volume and animal weight were measured twice a week and continued until the end of the experiment. Dosing day was defined as day 0. Measurement time points were day 0, day 3, day 7, day 10, day 14, and day 15. All mice were euthanized by cervical dislocation. At the end of the experiment, tumors were collected and weighed to calculate TGI values (see Table 6).

Chain of CDK6/CycD1 (Q00534 whole entry, species assumed): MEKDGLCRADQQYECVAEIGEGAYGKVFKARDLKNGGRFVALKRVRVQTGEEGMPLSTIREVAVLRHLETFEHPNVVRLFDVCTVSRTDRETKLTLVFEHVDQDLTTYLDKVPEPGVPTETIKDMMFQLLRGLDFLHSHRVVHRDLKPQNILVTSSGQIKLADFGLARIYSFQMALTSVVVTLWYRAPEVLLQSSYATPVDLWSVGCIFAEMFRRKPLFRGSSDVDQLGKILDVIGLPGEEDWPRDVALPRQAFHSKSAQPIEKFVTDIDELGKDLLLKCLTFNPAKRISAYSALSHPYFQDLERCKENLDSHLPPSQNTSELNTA
Chain of CDK6/CycD1 (P24385 whole entry partner, species assumed): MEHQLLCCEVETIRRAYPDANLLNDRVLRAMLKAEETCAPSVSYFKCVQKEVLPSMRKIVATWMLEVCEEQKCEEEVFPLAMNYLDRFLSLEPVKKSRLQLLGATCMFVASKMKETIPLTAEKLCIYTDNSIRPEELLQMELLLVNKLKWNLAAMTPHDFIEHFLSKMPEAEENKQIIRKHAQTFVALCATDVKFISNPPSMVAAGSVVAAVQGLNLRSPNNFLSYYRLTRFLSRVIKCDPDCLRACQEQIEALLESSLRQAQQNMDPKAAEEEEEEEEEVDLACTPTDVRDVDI

Compound | IC50 (CDK6/CycD1) | IC50 (CDK2/CycE1) | IC50 (CDK4/CycD3) | TGI (xMCF-7/Palbo-R cells) | IC50 (T47D cells; Homo sapiens, 168 h) | IC50 (OVCAR3 cells; Homo sapiens, OVCAR-3, 168 h) | IC50 (HCC1806 cells; Homo sapiens, HCC1806, 168 h) | IC50 (MCF7 cells; Homo sapiens, 168 h) | TGI (OVCAR-3 cells; 30 mg/kg, oral tube feeding twice daily for 21 days) | TGI (OVCAR-3 cells; 50 mg/kg, oral tube feeding twice daily for 21 days) | IC50 (MCF-7-Palbo-R cells; read-out: AbsIC50) | IC50 (MCF-7-Palbo-R cells; read-out: ReIC50) | Bottom(%) (MCF-7-Palbo-R cells) | Top(%) (MCF-7-Palbo-R cells) | TGI (OVCAR-3 cells; 60 mg/kg, oral tube feeding once daily for 21 days) | TGI (MV4-11 cells) | IC50 (T47D cells) | IC50 (OVCAR3 cells) | IC50 (HCC1806 cells) | IC50 (MCF7 cells)
C[C@@]1(O)CCC[C@H]1n1c(=O)c(OC(F)F)cc2cnc(NC3CCN(S(=O)(=O)c4ccccn4)CC3)nc21 [Example 27] | < 10 nM | < 10 nM | < 10 nM | 61.5% | ≤ 50 nM | ≤ 50 nM | ≤ 50 nM | ≤ 50 nM | – | – | – | – | – | – | – | – | – | – | – | –
[2H]C1(Nc2ncc3cc(OC(F)F)c(=O)n([C@@H]4CCC[C@@]4(C)O)c3n2)CCN(S(C)(=O)=O)CC1 [Example 29] | < 10 nM | < 10 nM | < 10 nM | – | 50 to 5200 nM | ≤ 50 nM | ≤ 50 nM | ≤ 50 nM | 69% | 74.8% | – | – | – | – | – | – | – | – | – | –
C[C@@]1(O)CCC[C@H]1n1c(=O)c(OC(F)F)cc2cnc(NC3CCN(S(=O)(=O)c4ccc(F)cc4)CC3)nc21 [Example 12] | < 10 nM | < 10 nM | < 10 nM | – | ≤ 50 nM | ≤ 50 nM | ≤ 50 nM | 50 to 5200 nM | – | – | 26 nM | 26 nM | 7.117% | 99.196% | – | – | – | – | – | –
Palbociclib [reference compound] | – | – | – | – | – | – | – | – | – | – | 4010 nM | 7090 nM | −3.542% | 68.840% | 27.7% | 39% | 50 to 5200 nM | > 1000 nM | > 1000 nM | ≤ 50 nM
